ChEMBL document CHEMBL5034018, “LXR-Mediated Regulation of Marine-Derived Piericidins Aggravates High-Cholesterol Diet-Induced Cholesterol Metabolism Disorder in Mice” (J Med Chem, 2021)

Assays:
[1] = target: T1, Oxysterols receptor LXR-alpha (Homo sapiens, UniProt Q13133); assay: Binding affinity to full-length human LXRalpha by surface plasmon resonance assay
T1 sequence (Q13133 whole entry): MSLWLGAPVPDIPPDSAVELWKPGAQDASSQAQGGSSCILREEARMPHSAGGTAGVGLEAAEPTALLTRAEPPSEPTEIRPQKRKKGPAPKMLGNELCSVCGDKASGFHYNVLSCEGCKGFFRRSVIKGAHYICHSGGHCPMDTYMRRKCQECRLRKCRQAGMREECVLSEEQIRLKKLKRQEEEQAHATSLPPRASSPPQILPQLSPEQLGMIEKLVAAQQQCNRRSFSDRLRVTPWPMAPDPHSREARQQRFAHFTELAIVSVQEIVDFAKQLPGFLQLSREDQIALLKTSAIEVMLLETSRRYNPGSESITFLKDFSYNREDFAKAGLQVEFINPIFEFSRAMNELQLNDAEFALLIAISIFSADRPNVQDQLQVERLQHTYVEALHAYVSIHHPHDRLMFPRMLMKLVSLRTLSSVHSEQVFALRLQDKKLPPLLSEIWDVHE

[2] = Hepatotoxicity in renal carcinoma xenografted C57BL/6 mouse assessed as fold increase in plasma ALT at 0.8 mg/kg, ip; assay type: toxicity, organism-based; settings: in vivo
[3] = Hepatotoxicity in renal carcinoma xenografted C57BL/6 mouse assessed as fold increase in plasma AST at 0.8 mg/kg, ip; assay type: toxicity, organism-based; settings: in vivo
[4] = Induction of Cholesterol accumulation in human HepG2 cells assessed as fold increase in LDL-cholesterol level at 10 uM after 48 hrs; assay type: functional

For `O=C(O)Cc1cccc(OCCCN(Cc2cccc(C(F)(F)F)c2Cl)CC(c2ccccc2)c2ccccc2)c1`, the Kd [1] was 6.97 µM.

Work on `C/C=C(\C)C(=O)[C@H](C)/C=C(C)/C=C/C/C(C)=C/Cc1nc(OC)c(OC)c(O)c1C` yielded a Kd [1] of 7.22 µM.

For `CNC(=O)c1cc(Oc2ccc(NC(=O)Nc3ccc(Cl)c(C(F)(F)F)c3)cc2)ccn1` [SORAFENIB], the “fold change (FC)” value [2] was 4.3 and the “fold change (FC)” value [3] was 2.3.

For `CC(C)c1c(C(=O)Nc2ccccc2)c(-c2ccccc2)c(-c2ccc(F)cc2)n1CC[C@@H](O)C[C@@H](O)CC(=O)O` [ATORVASTATIN], the “fold change (FC)” value [4] was 2.4.
